Laboratory results as given in PubChem BioAssay (NCI).
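96-well plates; 48 h exposure; 5 concentrations. Endpoints by linear interpolation between flanking doses. Not reached: highest tested concentration assigned. GI50 marks 50% less growth. TGI: concentration producing complete growth inhibition.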

Columns and labels:
Test in all cases: NCI-60 cell line screen, 48 h
786-0 renal = test system: 786-0 renal
A549 NSCLC = test system: A549 NSCLC
ACHN renal = test system: ACHN renal
BT-549 breast = test system: BT-549 breast
CAKI-1 renal = test system: CAKI-1 renal
CCRF-CEM leukemia = test system: CCRF-CEM leukemia
COLO 205 colon = test system: COLO 205 colon
DU-145 prostate = test system: DU-145 prostate
EKVX NSCLC = test system: EKVX NSCLC
HCC-2998 colon = test system: HCC-2998 colon
HCT-116 colon = test system: HCT-116 colon
HCT-15 colon = test system: HCT-15 colon
HL-60(TB) leukemia = test system: HL-60(TB) leukemia
HOP-62 NSCLC = test system: HOP-62 NSCLC
HOP-92 NSCLC = test system: HOP-92 NSCLC
HS 578T breast = test system: HS 578T breast
HT29 colon = test system: HT29 colon
IGROV1 ovarian = test system: IGROV1 ovarian
K-562 leukemia = test system: K-562 leukemia
KM12 colon = test system: KM12 colon
LOX IMVI melanoma = test system: LOX IMVI melanoma
M14 melanoma = test system: M14 melanoma
MALME-3M melanoma = test system: MALME-3M melanoma
MCF7 breast = test system: MCF7 breast
MDA-MB-231 breast = test system: MDA-MB-231 breast
MDA-MB-435 = test system: MDA-MB-435
MOLT-4 leukemia = test system: MOLT-4 leukemia
NCI-H226 lung = test system: NCI-H226 lung
NCI-H23 lung = test system: NCI-H23 lung
NCI-H460 lung = test system: NCI-H460 lung
NCI-H522 lung = test system: NCI-H522 lung
NCI/ADR-RES ovarian = test system: NCI/ADR-RES ovarian
OVCAR-3 ovarian = test system: OVCAR-3 ovarian
OVCAR-4 ovarian = test system: OVCAR-4 ovarian
OVCAR-5 ovarian = test system: OVCAR-5 ovarian
OVCAR-8 ovarian = test system: OVCAR-8 ovarian
PC-3 prostate = test system: PC-3 prostate
RPMI-8226 leukemia = test system: RPMI-8226 leukemia
RXF 393 renal = test system: RXF 393 renal
SF-268 CNS = test system: SF-268 CNS
SF-295 CNS = test system: SF-295 CNS
SF-539 CNS = test system: SF-539 CNS
SK-MEL-2 melanoma = test system: SK-MEL-2 melanoma
SK-MEL-28 melanoma = test system: SK-MEL-28 melanoma
SK-MEL-5 melanoma = test system: SK-MEL-5 melanoma
SK-OV-3 ovarian = test system: SK-OV-3 ovarian
SN12C renal = test system: SN12C renal
SNB-19 CNS = test system: SNB-19 CNS
SNB-75 CNS = test system: SNB-75 CNS
SR leukemia = test system: SR leukemia
SW-620 colon = test system: SW-620 colon
T-47D breast = test system: T-47D breast
TK-10 renal = test system: TK-10 renal
U251 CNS = test system: U251 CNS
UACC-257 melanoma = test system: UACC-257 melanoma
UACC-62 melanoma = test system: UACC-62 melanoma
UO-31 renal = test system: UO-31 renal

SMILES: CCc1ccccc1-n1c(N)c(C#N)c(-c2ccc(OC)c(OC)c2)c(C#N)c1=O
- GI50 (786-0 renal): 18.8 µM
- TGI (786-0 renal): 33.3 µM
- GI50 (A549 NSCLC): 34.4 µM
- TGI (A549 NSCLC): > 100 µM
- GI50 (ACHN renal): 19.7 µM
- TGI (ACHN renal): 53.7 µM
- GI50 (BT-549 breast): 19.4 µM
- TGI (BT-549 breast): 49.5 µM
- GI50 (CAKI-1 renal): > 100 µM
- TGI (CAKI-1 renal): > 100 µM
- GI50 (CCRF-CEM leukemia): > 100 µM
- TGI (CCRF-CEM leukemia): > 100 µM
- GI50 (COLO 205 colon): > 100 µM
- TGI (COLO 205 colon): > 100 µM
- GI50 (DU-145 prostate): 29.6 µM
- TGI (DU-145 prostate): > 100 µM
- GI50 (EKVX NSCLC): 41.1 µM
- TGI (EKVX NSCLC): > 100 µM
- GI50 (HCC-2998 colon): 31.9 µM
- TGI (HCC-2998 colon): > 100 µM
- GI50 (HCT-116 colon): 17 µM
- TGI (HCT-116 colon): 31.1 µM
- GI50 (HCT-15 colon): 37.4 µM
- TGI (HCT-15 colon): > 100 µM
- GI50 (HL-60(TB) leukemia): > 100 µM
- TGI (HL-60(TB) leukemia): > 100 µM
- GI50 (HOP-62 NSCLC): 17.1 µM
- TGI (HOP-62 NSCLC): 34.3 µM
- GI50 (HOP-92 NSCLC): 0.283 µM
- TGI (HOP-92 NSCLC): 29 µM
- GI50 (HS 578T breast): 15.5 µM
- TGI (HS 578T breast): 41.3 µM
- GI50 (HT29 colon): 41 µM
- TGI (HT29 colon): > 100 µM
- GI50 (IGROV1 ovarian): 19.5 µM
- TGI (IGROV1 ovarian): 60 µM
- GI50 (K-562 leukemia): > 100 µM
- TGI (K-562 leukemia): > 100 µM
- GI50 (KM12 colon): 16.9 µM
- TGI (KM12 colon): 34.6 µM
- GI50 (LOX IMVI melanoma): 23.6 µM
- TGI (LOX IMVI melanoma): 92.2 µM
- GI50 (M14 melanoma): 19.7 µM
- TGI (M14 melanoma): 56 µM
- GI50 (MALME-3M melanoma): 17.4 µM
- TGI (MALME-3M melanoma): 40.4 µM
- GI50 (MCF7 breast): 16.9 µM
- TGI (MCF7 breast): 33.5 µM
- GI50 (MDA-MB-231 breast): 17.1 µM
- TGI (MDA-MB-231 breast): 35.8 µM
- GI50 (MDA-MB-435): 34.7 µM
- TGI (MDA-MB-435): > 100 µM
- GI50 (MOLT-4 leukemia): > 100 µM
- TGI (MOLT-4 leukemia): > 100 µM
- GI50 (NCI-H226 lung): 17.1 µM
- TGI (NCI-H226 lung): 41.8 µM
- GI50 (NCI-H23 lung): 17 µM
- TGI (NCI-H23 lung): 33.3 µM
- GI50 (NCI-H460 lung): 19.3 µM
- TGI (NCI-H460 lung): 38.5 µM
- GI50 (NCI-H522 lung): 19 µM
- TGI (NCI-H522 lung): 44.8 µM
- GI50 (NCI/ADR-RES ovarian): 31.9 µM
- TGI (NCI/ADR-RES ovarian): > 100 µM
- GI50 (OVCAR-3 ovarian): 17.3 µM
- TGI (OVCAR-3 ovarian): 33.1 µM
- GI50 (OVCAR-4 ovarian): 23.1 µM
- TGI (OVCAR-4 ovarian): 63 µM
- GI50 (OVCAR-5 ovarian): 20.5 µM
- TGI (OVCAR-5 ovarian): 55.3 µM
- GI50 (OVCAR-8 ovarian): 18.5 µM
- TGI (OVCAR-8 ovarian): 37.6 µM
- GI50 (PC-3 prostate): 15.4 µM
- TGI (PC-3 prostate): 32.8 µM
- GI50 (RPMI-8226 leukemia): 43.1 µM
- TGI (RPMI-8226 leukemia): > 100 µM
- GI50 (RXF 393 renal): 16.3 µM
- TGI (RXF 393 renal): 35.3 µM
- GI50 (SF-268 CNS): 16.2 µM
- TGI (SF-268 CNS): 31.6 µM
- GI50 (SF-295 CNS): 22.4 µM
- TGI (SF-295 CNS): 61.1 µM
- GI50 (SF-539 CNS): 15 µM
- TGI (SF-539 CNS): 28.3 µM
- GI50 (SK-MEL-2 melanoma): 25.8 µM
- TGI (SK-MEL-2 melanoma): 80.6 µM
- GI50 (SK-MEL-28 melanoma): 20.1 µM
- TGI (SK-MEL-28 melanoma): 41.8 µM
- GI50 (SK-MEL-5 melanoma): 32.7 µM
- TGI (SK-MEL-5 melanoma): > 100 µM
- GI50 (SK-OV-3 ovarian): 17.7 µM
- TGI (SK-OV-3 ovarian): 36.6 µM
- GI50 (SN12C renal): 19 µM
- TGI (SN12C renal): 45.1 µM
- GI50 (SNB-19 CNS): 20.5 µM
- TGI (SNB-19 CNS): 59 µM
- GI50 (SNB-75 CNS): 17.8 µM
- TGI (SNB-75 CNS): 32.1 µM
- GI50 (SR leukemia): 15 µM
- TGI (SR leukemia): > 100 µM
- GI50 (SW-620 colon): 33.3 µM
- TGI (SW-620 colon): > 100 µM
- GI50 (T-47D breast): 27.2 µM
- TGI (T-47D breast): > 100 µM
- GI50 (TK-10 renal): 18 µM
- TGI (TK-10 renal): 39.4 µM
- GI50 (U251 CNS): 16.1 µM
- TGI (U251 CNS): 29.8 µM
- GI50 (UACC-257 melanoma): 23.9 µM
- TGI (UACC-257 melanoma): 72.6 µM
- GI50 (UACC-62 melanoma): 16.3 µM
- TGI (UACC-62 melanoma): 37.7 µM
- GI50 (UO-31 renal): 25.5 µM
- TGI (UO-31 renal): > 100 µM
